# Reference: PMC10018608 (Signal Transduction and Targeted Therapy, 2023)
# Where two headings read alike, the source gives them in different places.
# Assays:
# [1] = test system: SARS-CoV-2 Omicron BA.1 (B.1.1.529.1); assay: In vitro antiviral screening, viral genome copies by RT-qPCR in VeroE6-TMPRSS2; assay type: cell-based; conditions: Omicron BA.1, VeroE6-TMPRSS2
# [2] = test system: SARS-CoV-2 (B.1.1.7); assay: Plaque reduction assay in VeroE6-TMPRSS2; assay type: cell-based; conditions: Severe acute respiratory syndrome coronavirus 2
# [3] = test system: SARS-CoV-2 (B.1.351); assay: Plaque reduction assay in VeroE6-TMPRSS2; assay type: cell-based; conditions: Severe acute respiratory syndrome coronavirus 2
# [4] = test system: MERS-CoV; assay: microbe, parasite or virus in culture; assay type: cell-based; conditions: Middle East respiratory syndrome-related coronavirus, VeroE6/TMPRSS2, read-out: EC50 (plaque reduction)
# [5] = in vitro; assay type: cell-based; conditions: 72 h
# Experimental: Cells were seeded and grown in 96 well plates overnight. Then various concentrations of compounds in fresh medium were added and incubated for 72 h. Using MTT (Sigma) assay to determine the cell viability.
# [6] = molecular target: T1, CYP1A2 (Homo sapiens, UniProt P05177); assay: biochemical; assay type: in vitro ADME; conditions: CYP1A2 (Phenacetin), HLM
# T1 construct: Add 400 μL 0.2 mg/mL HLM; from tissue; host or cells: human liver microsomes (HLM)
# T1 sequence (P05177 whole entry): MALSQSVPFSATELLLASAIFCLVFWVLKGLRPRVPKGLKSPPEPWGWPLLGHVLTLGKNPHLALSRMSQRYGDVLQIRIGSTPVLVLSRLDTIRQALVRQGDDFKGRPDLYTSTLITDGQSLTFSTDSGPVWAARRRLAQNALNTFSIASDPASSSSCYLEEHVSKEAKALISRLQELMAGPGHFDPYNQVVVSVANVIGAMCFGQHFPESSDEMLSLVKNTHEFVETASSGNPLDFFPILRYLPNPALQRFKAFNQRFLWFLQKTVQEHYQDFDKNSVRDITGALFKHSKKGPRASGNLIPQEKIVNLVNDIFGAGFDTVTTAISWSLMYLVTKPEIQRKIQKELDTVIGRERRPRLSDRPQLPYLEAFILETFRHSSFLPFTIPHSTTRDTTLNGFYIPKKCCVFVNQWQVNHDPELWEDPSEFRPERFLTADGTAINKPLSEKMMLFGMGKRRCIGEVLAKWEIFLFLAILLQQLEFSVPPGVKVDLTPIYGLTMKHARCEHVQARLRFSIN
# Experimental: (§1) Preheat 0.1 M pH 7.4 K/Mg-buffer at 37 °C. The reference inhibitors for this assay are α-Naphthoflavone (1A2), Ticlopidine (2B6), Montelukast (2C8), Sulfaphenazole (2C9), Omeprazole (2C19), Quinidine (2D6), Ketoconazole (3A4). Test compound and reference inhibitors were dissolved in ACN. NADPH cofactor was dissolved in K/Mg-buffer. Each CYP450 isoform was prepared 2 mL substrate (1A2: Phenacetin, 2B6: Amfebutamone HCl, 2C8: Paclitaxel, 2C9: Diclofenac, 2C19: S-Mephenytoin, 2D6: Dextromethorphan, 3A4: Midazolam and Testosterone). Add 400 μL 0.2 mg/mL HLM and 2 μL of test compound set (serially diluted) to the assay wells. And then add 30 μL HLM-compound mixture and 15 μL substrate solution in the 96-well assay plate on ice. Then incubate the 96-well assay plate at 37 °C for 5 min. Add 15 µL of pre-warmed (37 °C) 8 mM NADPH solution to initiate the enzyme reaction. Incubate the assay plate at 37 °C for 5–45 min and quench the reaction. Then collect samples for LC/MS analysis.
# [7] = molecular target: T2, CYP2B6 (Homo sapiens, UniProt P20813); assay: biochemical; assay type: in vitro ADME; conditions: CYP2B6 (Bupropion), HLM
# T2 construct: Add 400 μL 0.2 mg/mL HLM; from tissue; host or cells: human liver microsomes (HLM)
# T2 sequence (P20813 whole entry): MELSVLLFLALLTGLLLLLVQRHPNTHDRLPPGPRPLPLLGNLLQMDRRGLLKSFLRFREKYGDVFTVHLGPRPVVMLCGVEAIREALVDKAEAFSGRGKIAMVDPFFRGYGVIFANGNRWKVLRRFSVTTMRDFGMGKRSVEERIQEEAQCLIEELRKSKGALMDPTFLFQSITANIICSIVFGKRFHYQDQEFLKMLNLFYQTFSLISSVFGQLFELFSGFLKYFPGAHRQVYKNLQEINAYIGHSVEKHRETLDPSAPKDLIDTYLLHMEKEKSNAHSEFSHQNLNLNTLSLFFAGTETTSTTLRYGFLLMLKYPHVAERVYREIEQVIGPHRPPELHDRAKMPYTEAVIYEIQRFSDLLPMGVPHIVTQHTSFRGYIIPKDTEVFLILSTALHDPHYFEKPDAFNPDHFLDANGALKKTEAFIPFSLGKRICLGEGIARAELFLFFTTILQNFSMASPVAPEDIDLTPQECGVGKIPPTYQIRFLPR
# Experimental: as §1
# [8] = molecular target: T3, CYP2C19 (Homo sapiens, UniProt P33261); assay: biochemical; assay type: in vitro ADME; conditions: CYP2C19 (S-Mephenytoin), HLM
# T3 construct: Add 400 μL 0.2 mg/mL HLM; from tissue; host or cells: human liver microsomes (HLM)
# T3 sequence (P33261 whole entry): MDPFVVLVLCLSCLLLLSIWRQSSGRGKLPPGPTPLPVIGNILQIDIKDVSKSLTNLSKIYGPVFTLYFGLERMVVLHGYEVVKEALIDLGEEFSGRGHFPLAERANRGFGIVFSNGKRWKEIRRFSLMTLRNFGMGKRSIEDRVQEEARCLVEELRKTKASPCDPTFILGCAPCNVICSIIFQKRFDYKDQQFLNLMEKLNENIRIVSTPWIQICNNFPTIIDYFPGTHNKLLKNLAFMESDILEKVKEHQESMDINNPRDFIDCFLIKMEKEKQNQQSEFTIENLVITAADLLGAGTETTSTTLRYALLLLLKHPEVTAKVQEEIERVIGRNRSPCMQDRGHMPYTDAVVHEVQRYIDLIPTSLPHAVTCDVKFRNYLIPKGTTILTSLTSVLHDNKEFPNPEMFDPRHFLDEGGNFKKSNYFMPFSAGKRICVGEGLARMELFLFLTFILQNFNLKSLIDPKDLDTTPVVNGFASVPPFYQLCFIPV
# Experimental: as §1
# [9] = molecular target: T4, CYP2C8 (Homo sapiens, UniProt P10632); assay: biochemical; assay type: in vitro ADME; conditions: CYP2C8 (Paclitaxel), HLM
# T4 construct: Add 400 μL 0.2 mg/mL HLM; from tissue; host or cells: human liver microsomes (HLM)
# T4 sequence (P10632 whole entry): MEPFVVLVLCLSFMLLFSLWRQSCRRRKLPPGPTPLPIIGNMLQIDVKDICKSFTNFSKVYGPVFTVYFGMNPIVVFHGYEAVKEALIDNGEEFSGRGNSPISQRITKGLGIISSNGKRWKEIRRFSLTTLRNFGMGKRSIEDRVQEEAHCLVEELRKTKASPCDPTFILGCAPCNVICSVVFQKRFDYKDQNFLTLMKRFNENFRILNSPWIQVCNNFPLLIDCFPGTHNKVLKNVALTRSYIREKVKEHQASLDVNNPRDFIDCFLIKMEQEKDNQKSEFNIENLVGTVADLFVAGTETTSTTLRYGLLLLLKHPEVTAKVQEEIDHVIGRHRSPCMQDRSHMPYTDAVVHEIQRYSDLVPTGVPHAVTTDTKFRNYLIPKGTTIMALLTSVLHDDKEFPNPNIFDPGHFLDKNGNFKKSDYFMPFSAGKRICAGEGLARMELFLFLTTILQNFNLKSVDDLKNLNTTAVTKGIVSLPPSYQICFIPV
# Experimental: as §1
# [10] = molecular target: T5, CYP2C9 (Homo sapiens, UniProt P11712); assay: biochemical; assay type: in vitro ADME; conditions: CYP2C9 (Diclofenac), HLM
# T5 construct: Add 400 μL 0.2 mg/mL HLM; from tissue; host or cells: human liver microsomes (HLM)
# T5 sequence (P11712 whole entry): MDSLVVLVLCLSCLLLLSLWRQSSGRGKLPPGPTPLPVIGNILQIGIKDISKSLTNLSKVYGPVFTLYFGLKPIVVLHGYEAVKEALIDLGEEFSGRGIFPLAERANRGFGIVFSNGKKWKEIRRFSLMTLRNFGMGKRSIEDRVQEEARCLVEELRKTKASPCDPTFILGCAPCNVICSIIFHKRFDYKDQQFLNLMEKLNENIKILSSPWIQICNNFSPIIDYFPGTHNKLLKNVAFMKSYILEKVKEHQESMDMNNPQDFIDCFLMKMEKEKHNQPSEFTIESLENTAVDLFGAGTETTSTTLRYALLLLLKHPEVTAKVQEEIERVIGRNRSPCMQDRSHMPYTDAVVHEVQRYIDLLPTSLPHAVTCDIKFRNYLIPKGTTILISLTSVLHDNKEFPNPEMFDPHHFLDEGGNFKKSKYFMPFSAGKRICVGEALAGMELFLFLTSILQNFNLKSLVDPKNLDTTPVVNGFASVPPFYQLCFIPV
# Experimental: as §1
# [11] = molecular target: T6, CYP2D6 (Homo sapiens, UniProt P10635); assay: biochemical; assay type: in vitro ADME; conditions: CYP2D6 (Dextromethorphan), HLM
# T6 construct: Add 400 μL 0.2 mg/mL HLM; from tissue; host or cells: human liver microsomes (HLM)
# T6 sequence (P10635 whole entry): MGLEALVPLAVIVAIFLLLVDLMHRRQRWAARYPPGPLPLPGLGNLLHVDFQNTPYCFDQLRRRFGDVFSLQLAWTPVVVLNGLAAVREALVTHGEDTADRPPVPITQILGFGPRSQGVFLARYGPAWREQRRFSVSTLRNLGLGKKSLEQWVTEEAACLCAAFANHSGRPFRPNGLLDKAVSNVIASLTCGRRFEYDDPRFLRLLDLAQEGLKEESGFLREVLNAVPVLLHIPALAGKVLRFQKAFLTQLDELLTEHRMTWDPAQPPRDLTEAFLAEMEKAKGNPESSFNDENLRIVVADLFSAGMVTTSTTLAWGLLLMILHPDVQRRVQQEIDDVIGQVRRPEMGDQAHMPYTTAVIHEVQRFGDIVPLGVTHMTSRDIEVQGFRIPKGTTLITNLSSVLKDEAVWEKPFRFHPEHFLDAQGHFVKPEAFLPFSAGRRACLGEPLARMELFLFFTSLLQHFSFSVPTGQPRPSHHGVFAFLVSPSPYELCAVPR
# Experimental: as §1
# [12] = molecular target: T7, CYP3A4 (Homo sapiens, UniProt P08684); assay: biochemical; assay type: in vitro ADME
# T7 construct: Add 400 μL 0.2 mg/mL HLM; from tissue; host or cells: human liver microsomes (HLM)
# T7 sequence (P08684 whole entry): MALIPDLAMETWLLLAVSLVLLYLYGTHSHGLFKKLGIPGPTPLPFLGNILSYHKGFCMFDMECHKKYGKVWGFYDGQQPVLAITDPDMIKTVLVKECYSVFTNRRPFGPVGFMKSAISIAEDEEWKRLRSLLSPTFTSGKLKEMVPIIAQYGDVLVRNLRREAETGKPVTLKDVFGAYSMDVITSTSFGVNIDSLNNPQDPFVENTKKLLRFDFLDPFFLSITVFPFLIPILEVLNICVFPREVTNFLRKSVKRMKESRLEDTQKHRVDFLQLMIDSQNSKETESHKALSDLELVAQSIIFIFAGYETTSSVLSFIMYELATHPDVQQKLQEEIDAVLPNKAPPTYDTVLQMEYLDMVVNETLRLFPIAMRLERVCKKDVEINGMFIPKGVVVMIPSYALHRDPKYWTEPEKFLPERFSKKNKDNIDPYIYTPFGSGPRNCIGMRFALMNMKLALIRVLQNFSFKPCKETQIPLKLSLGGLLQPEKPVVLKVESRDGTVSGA
# Experimental: as §1
# [13] = in vitro; assay type: in vitro ADME, human; conditions: human plasma, equilibrium dialysis; read-out: plasma unbound fraction
# [14] = test system: human plasma protein; assay: in vitro; assay type: in vitro ADME; conditions: human plasma, 1 μM, equilibrium dialysis 5 h
# [15] = molecular target: T8, Human Cathepsin L (Homo sapiens, UniProt P07711); assay: Mammalian proteases activity assay; assay type: biochemical
# T8 construct: purchased Biovision, USA
# Experimental: (§2) The mammalian proteases activity assay was analyzed using the assay kit (Biovision, USA) in triplicate by following manufacturer’s manual.
# [16] = molecular target: T9, Neutrophil Elastase (Homo sapiens, UniProt P08246); assay: Mammalian proteases activity assay; assay type: biochemical
# T9 construct: purchased Biovision, USA
# T9 sequence (P08246 30-267): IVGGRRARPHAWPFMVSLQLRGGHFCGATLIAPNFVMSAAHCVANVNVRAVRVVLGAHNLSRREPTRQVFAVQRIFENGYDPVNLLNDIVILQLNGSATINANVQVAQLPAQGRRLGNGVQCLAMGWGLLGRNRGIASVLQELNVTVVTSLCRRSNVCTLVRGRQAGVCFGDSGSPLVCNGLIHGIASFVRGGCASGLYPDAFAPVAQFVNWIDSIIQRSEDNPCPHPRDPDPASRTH
# Experimental: as §2
# [17] = test system: various human proteases; assay: Mammalian proteases activity assay (text summary of the panel); assay type: biochemical; conditions: tested various human proteases
# Experimental: as §2
# [18] = test system: SARS-CoV-2 Omicron BA.2 sublineage; assay type: in vivo, K18-hACE2 transgenic mice
# [19] = SD rats
# [20] = Beagle Dog, i.v. (1 mg/kg)
# [21] = ICR Mice
# [22] = in vivo; conditions: male, Sprague-Dawley, rat
# [23] = in vivo; conditions: male, cynomolgus monkey
# [24] = molecular target: hERG channel (Homo sapiens, UniProt Q12809); assay: cell-based
# hERG channel, sequence (Q12809 whole entry): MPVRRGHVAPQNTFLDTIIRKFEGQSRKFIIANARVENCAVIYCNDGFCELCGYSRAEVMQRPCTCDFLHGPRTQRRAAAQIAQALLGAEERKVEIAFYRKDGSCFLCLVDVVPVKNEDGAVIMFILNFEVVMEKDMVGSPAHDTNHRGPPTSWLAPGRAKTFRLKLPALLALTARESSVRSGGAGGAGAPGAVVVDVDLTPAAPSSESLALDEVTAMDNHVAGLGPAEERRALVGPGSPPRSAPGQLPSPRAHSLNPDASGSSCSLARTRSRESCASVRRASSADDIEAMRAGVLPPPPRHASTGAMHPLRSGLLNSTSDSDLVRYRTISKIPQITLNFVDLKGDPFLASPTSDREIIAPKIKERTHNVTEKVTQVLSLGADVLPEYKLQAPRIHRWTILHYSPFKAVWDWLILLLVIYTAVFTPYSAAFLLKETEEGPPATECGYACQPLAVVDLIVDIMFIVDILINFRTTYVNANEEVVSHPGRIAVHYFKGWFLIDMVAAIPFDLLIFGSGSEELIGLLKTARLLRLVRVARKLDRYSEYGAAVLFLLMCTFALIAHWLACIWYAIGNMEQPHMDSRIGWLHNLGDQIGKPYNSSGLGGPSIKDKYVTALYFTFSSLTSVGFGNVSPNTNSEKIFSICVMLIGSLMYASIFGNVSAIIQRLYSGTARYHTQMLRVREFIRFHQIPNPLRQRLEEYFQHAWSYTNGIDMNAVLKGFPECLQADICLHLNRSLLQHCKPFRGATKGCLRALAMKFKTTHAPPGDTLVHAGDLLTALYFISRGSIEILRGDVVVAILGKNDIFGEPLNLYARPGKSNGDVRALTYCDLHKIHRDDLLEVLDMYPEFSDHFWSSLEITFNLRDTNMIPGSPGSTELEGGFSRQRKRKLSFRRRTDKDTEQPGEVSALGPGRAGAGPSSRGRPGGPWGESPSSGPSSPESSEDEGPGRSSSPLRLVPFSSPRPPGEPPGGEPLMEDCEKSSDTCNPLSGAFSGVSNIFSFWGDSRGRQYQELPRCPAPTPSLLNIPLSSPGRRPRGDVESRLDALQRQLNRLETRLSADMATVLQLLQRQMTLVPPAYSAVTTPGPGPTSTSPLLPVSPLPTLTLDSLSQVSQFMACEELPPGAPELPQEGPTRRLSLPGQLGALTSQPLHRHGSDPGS
compound,measurement,setting,value
"COC[C@@H](NC(=O)C1CCCC(F)(F)C1)C(=O)N[C@H](Cc1ccccc1)C(=O)C(=O)NCc1nccs1 (stereo partly drawn) [SY110, N-((R)-1-(((R)-3,4-dioxo-1-phenyl-4-((thiazol-2-ylmethyl)amino)butan-2-yl)amino)-3-methoxy-1-oxopropan-2-yl)-3,3-difluorocyclohexane-1-carboxamide]",antiviral activity among the six compounds tested,[1],most potent antiviral activity
same,EC50,[2],1.21 µM
same,EC50,[3],2.84 µM
same,EC50,[4],6.27 µM
same,CC50,"[5]; African green monkey, VeroE6, MTT",> 500 µM
same,CC50,"[5]; human, BEAS-2B, MTT",> 500 µM
same,CC50,"[5]; human, HUVEC, MTT",> 500 µM
same,IC50,[6],> 30 µM
same,IC50,[7],> 30 µM
same,IC50,[8],> 30 µM
same,IC50,[9],> 30 µM
same,IC50,[10],> 30 µM
same,IC50,[11],> 30 µM
same,IC50,"[12]; CYP3A4 (Midazolam), HLM",> 30 µM
same,IC50,"[12]; CYP3A4 (Testosterone), HLM",> 30 µM
same,IC50,"[12]; CYP3A4, text, substrate not stated there",> 30 µM
same,fraction unbound,[13],0.301
same,Fraction of Bound (%),[14],69.9%
same,IC50,[15],> 100 µM
same,IC50,[16],> 100 µM
same,IC50,[17],> 100 µM
same,"lung pathology, H&E staining","[18]; mouse, in vivo",only scattered inflammatory cell infiltrates can be occasionally found in the alveolar interstitium
same,viral N protein expression in the lung tissue,"[18]; mouse, in vivo",substantially reduced the viral N protein expression
same,production of the infectious virus particles in the lung,"[18]; plaque assays, therapeutic treatment",effectively suppressed
same,MTRlast,[19]; i.v. (1 mg/kg),2.34 ± 0.22 h
same,Vzobs,[19]; i.v. (1 mg/kg),3.03 ± 0.71 L/kg
same,MTRlast,[19]; p.o. (10 mg/kg),6.60 ± 0.89 h
same,MTRlast,[20],0.47 ± 0.05 h
same,MTRlast,[21]; i.v. (1 mg/kg),0.17 ± 0.03 h
same,Vzobs,[21]; i.v. (1 mg/kg),4.27 ± 2.29 L/kg
same,MTRlast,[21]; p.o. (150 mg/kg),3.62 ± 1.18 h
same,no observed adverse effect level,"14 days repeated dose toxicity study, text says rats",600 mg/kg
same,"Results, repeated dose two-week toxicity study","mice, p.o., 600 mg/kg, twice daily, 14 days","without death, significant body weight change, or pathological changes in the heart, liver, lung, kidney, or spleen"
same,AUC(0-inf),"[22]; iv, 1 mg/kg",2320 ± 592 ng·h/mL
same,AUC(0-t),"[22]; iv, 1 mg/kg",2300 ± 587 ng·h/mL
same,Cmax,"[22]; iv, 1 mg/kg",1740 ± 285 ng/mL
same,Tmax,"[22]; iv, 1 mg/kg",0.08 h
same,clearance,"[22]; iv, 1 mg/kg",7.47 ± 1.67 mL/min/kg
same,half-life,"[22]; iv, 1 mg/kg",4.67 ± 0.19 h
same,AUC(0-inf),"[22]; po, 10 mg/kg",20200 ± 2600 ng·h/mL
same,AUC(0-t),"[22]; po, 10 mg/kg",19000 ng·h/mL
same,Cmax,"[22]; po, 10 mg/kg",1430 ± 98.5 ng/mL
same,Tmax,"[22]; po, 10 mg/kg",4 ± 2 h
same,bioavailability,"[22]; po, 10 mg/kg",82.8%
same,half-life,"[22]; po, 10 mg/kg",5.16 ± 2.94 h
same,AUC(0-inf),"[23]; iv, 1 mg/kg",506 ± 60.7 ng·h/mL
same,AUC(0-t),"[23]; iv, 1 mg/kg",501 ± 59.9 ng·h/mL
same,Cmax,"[23]; iv, 1 mg/kg",567 ± 38.2 ng/mL
same,Tmax,"[23]; iv, 1 mg/kg",0.08 h
same,clearance,"[23]; iv, 1 mg/kg",33.3 mL/min/kg
same,half-life,"[23]; iv, 1 mg/kg",0.73 ± 0.2 h
same,AUC(0-t),"[23]; po, 10 mg/kg",1220 ± 56.8 ng·h/mL
same,Cmax,"[23]; po, 10 mg/kg",242 ± 54.2 ng/mL
same,Tmax,"[23]; po, 10 mg/kg",2.33 ± 1.53 h
same,bioavailability,"[23]; po, 10 mg/kg",24.4%
same,half-life,"[23]; po, 10 mg/kg",5.57 ± 1.05 h
same,IC50,[24],> 30 µM
